The values below are quoted from earlier work in paper PMC12308805, “Ultrahigh-Throughput Virtual Screening Strategies against PPI Targets: A Case Study of STAT Inhibitors” (Journal of Chemical Information and Modeling, 2025).

For the first data set, the system named is STAT3. Particulars: sheet 6QHD_actives_decoys; retrospective screening set for STAT3 SH2 domain (PDB 6QHD); […]; ref DUD-E; cited from earlier work.
On to `O=C(CCCN1CCC(O[C@@H]2O[C@H](C(=O)O)[C@@H](O)[C@H](O)[C@H]2O)(c2ccc(Cl)cc2)CC1)c1ccc(F)cc1` [Decoy692], for which the Type result is recorded as “Inactive (Decoy)”. For the compound `COc1ccccc1NS(=O)(=O)c1cccc(C(=O)NNC(=O)c2cc3ccccc3[nH]c2=O)c1` [Decoy693], the Type result is reported as “Inactive (Decoy)”. With `COc1cc([C@H]2C(C#N)=C(N)Oc3[nH]nc(-c4cc(OC)c(OC)c(OC)c4)c32)ccc1OC(=O)N1CCOCC1` [Decoy695], the Type entry is listed as “Inactive (Decoy)”.

On to `CC(=O)Nc1ccc(S(=O)(=O)N[C@@]2(C(F)(F)F)C(=O)N=C3C2=C(O)N=C(S)N3Cc2ccco2)cc1` [Decoy697], for which the Type entry is listed as “Inactive (Decoy)”. Turning to `COc1ccc(NS(=O)(=O)c2cccc(NS(=O)(=O)c3cccc([N+](=O)[O-])c3)c2)cc1` [Decoy709], the Type result is given as “Inactive (Decoy)”.

Regarding `COc1cc(-n2c(O)c([C@H]3OC(=O)c4c3ccc(OC)c4OC)c(O)nc2=S)cc(OC)c1OC` [Decoy716], the Type entry is given as “Inactive (Decoy)”.

The same data set, now with this note: sheet 6QHD_actives_decoys; retrospective screening set for STAT3 SH2 domain (PDB 6QHD); decoys generated with DUD-E and presumed inactive, not tested; ref DUD-E; cited from earlier work.
For the compound `C=C[C@@](C)(CC/C=C(\C)CC/C=C(\C)C[C@H](O)/C=C(\C)C(=O)O)O[C@@H]1O[C@H](CO)[C@@H](O)[C@H](O)[C@H]1O[C@@H]1O[C@H](CO)[C@@H](O)[C@H](O)[C@H]1O` [Decoy688], the Type entry is “Inactive (Decoy)”.

For `C=C[C@](C)(CC/C=C(\C)CC/C=C(\C)C[C@H](O)/C=C(\C)C(=O)O)O[C@@H]1O[C@H](CO)[C@@H](O)[C@H](O)[C@H]1O[C@@H]1O[C@H](CO)[C@@H](O)[C@H](O)[C@H]1O` [Decoy689], the Type entry is recorded as “Inactive (Decoy)”. As for `COc1ccc([N+](=O)[O-])cc1NC(=S)N[C@@H](NC(=O)c1ccco1)C(Cl)(Cl)Cl` [Decoy690], the Type entry is “Inactive (Decoy)”.

With `C=C[C@@](C)(O)CC/C=C(\C)C(=O)O[C@@H]1[C@@H]2O[C@]2(C)[C@H]2[C@H](O[C@@H]3O[C@H](CO)[C@@H](O)[C@H](O)[C@H]3O)OC=C[C@@]12O` [Decoy691], the Type entry is “Inactive (Decoy)”. As to `COc1ccc(/C=N\N=C2/NC(=O)[C@@H](CC(=O)Nc3ccc([N+](=O)[O-])cc3)S2)c(C(=O)O)c1OC` [Decoy694], the Type entry was “Inactive (Decoy)”.

With `Cc1cc(C)n(Cc2ccc(NC(=S)Nc3ccc(S(=O)(=O)Nc4ncccn4)cc3)cc2)n1` [Decoy696], the Type entry is listed as “Inactive (Decoy)”.

As for `CC[C@H](c1nnnn1C[C@H]1CCCO1)N(Cc1ccc(C)cc1)Cc1cc2cc(OC)c(OC)cc2[nH]c1=O` [Decoy698], the Type entry was “Inactive (Decoy)”. As for `C=C[C@H]1[C@H](O[C@H]2O[C@@H](CO)[C@@H](O)[C@@H](O)[C@@H]2O)OC=C(C(=O)OC)[C@H]1CCOC(=O)c1cc(O)c(O)c(O)c1` [Decoy699], the Type entry is “Inactive (Decoy)”. As to `C=C[C@H]1[C@H](O[C@H]2O[C@@H](CO)[C@@H](O)[C@@H](O)[C@H]2O)OC=C(C(=O)OC)[C@H]1CCOC(=O)c1cc(O)c(O)c(O)c1` [Decoy700], the Type entry is on record as “Inactive (Decoy)”. On to `O=C[C@H](O)[C@@H](O)[C@H](O)[C@@H](CO)O[P@](=O)(OC[C@H]1O[C@@H](n2ccc(=O)[nH]c2=O)[C@H](O)[C@@H]1O)OP(=O)(O)O` [Decoy701], for which the Type result was “Inactive (Decoy)”. Turning to `Cc1cc(NS(=O)(=O)c2ccc(NC(=O)CCC(=O)Nc3ccc(S(=O)(=O)Nc4cc(C)on4)cc3)cc2)no1` [Decoy702], the Type result is listed as “Inactive (Decoy)”. Consider `CCN(CC)c1ccc(/C=N/NC(=O)CSc2nnc(-c3cc(OC)c(OC)c(OC)c3)n2-c2ccccc2)c(O)c1` [Decoy703], for which the Type entry is listed as “Inactive (Decoy)”. With `CCOC(=O)c1ccc(NC(=O)CSc2ccc3nnc(CCNS(=O)(=O)c4ccc(OC)cc4)n3n2)cc1` [Decoy704], the Type entry is reported as “Inactive (Decoy)”. As for `CCOC(=O)C1=C(C)NC(=O)N[C@H]1c1cc(OC)c(OCC(=O)Nc2ccc(C)cc2)cc1Br` [Decoy705], the Type entry is “Inactive (Decoy)”. Take `COc1cc(/C=C/C(=O)O[C@H]2[C@H](O)[C@@H](COC(=O)/C=C/c3ccc(O)cc3)O[C@@]2(CO)O[C@H]2O[C@H](CO)[C@@H](O)[C@H](O)[C@H]2O)ccc1O` [Decoy706]: the Type entry is given as “Inactive (Decoy)”. Regarding `COc1ccccc1OCCNC[C@@H](O)CN(CCOc1ccccc1OC)C[C@H](O)COc1cccc2[nH]c3ccccc3c12` [Decoy707], the Type result was “Inactive (Decoy)”. For the compound `COc1ccccc1OCCNC[C@H](O)CN(CCOc1ccccc1OC)C[C@H](O)COc1cccc2[nH]c3ccccc3c12` [Decoy708], the Type entry is “Inactive (Decoy)”.

As for `CCN(CC)c1ccc(/C=N/NC(=O)CN(c2cc(Cl)ccc2OC)S(=O)(=O)c2ccc(C)c([N+](=O)[O-])c2)cc1` [Decoy710], the Type entry was “Inactive (Decoy)”. In the case of `COC(=O)c1[nH]c(C)c(C(=O)C2=C(O)C(=O)N(CCCN3CCOCC3)[C@@H]2c2cc(OC)c(OC)c(OC)c2)c1C` [Decoy711], the Type entry is “Inactive (Decoy)”. On to `COCCN(C(=O)COc1cc(Cl)c(Cl)cc1Cl)c1c(N)n(CC(C)C)c(=O)[nH]c1=O` [Decoy712], for which the Type result is recorded as “Inactive (Decoy)”. Take `COc1ccc(CCNC(=O)CN(c2ccc(F)cc2)S(=O)(=O)c2ccc(OC)c(OC)c2)cc1OC` [Decoy713]: the Type entry is “Inactive (Decoy)”. As to `Cc1cccn2c(=O)c(/C=C3\SC(=S)N(CCCCCC(=O)O)C3=O)c(NCCN3CCOCC3)nc12` [Decoy714], the Type entry was “Inactive (Decoy)”. Consider `COc1cc(C[C@H]2CO[C@H](c3ccc(O)c(OC)c3)[C@@H]2CO[C@H]2O[C@@H](CO)[C@@H](O)[C@@H](O)[C@H]2O)ccc1O` [Decoy715], for which the Type result is “Inactive (Decoy)”. Turning to `COc1cc(O)c(C(C)=O)c(O[C@@H]2O[C@@H](CO[C@H]3O[C@@H](CO)[C@@H](O)[C@@H](O)[C@H]3O)[C@@H](O)[C@@H](O)[C@H]2O)c1` [Decoy717], the Type result was “Inactive (Decoy)”. Take `Nn1c(SCC(=O)N/N=C/c2ccccc2OCc2ccccc2Cl)nnc1-c1ccncc1` [Decoy718]: the Type entry is recorded as “Inactive (Decoy)”. In the case of `COC1=C(S[C@@H]2O[C@H](COC(C)=O)[C@@H](OC(C)=O)[C@H](OC(C)=O)[C@H]2OC(C)=O)C(=O)c2c(O)ccc(O)c2C1=O` [Decoy719], the Type result is given as “Inactive (Decoy)”. Turning to `CC[C@H](C)[C@H](NC(=O)CNC(=O)CCc1c(C)c2cc3c(C)c(C)oc3c(C)c2oc1=O)C(=O)NCCCCCC(=O)O` [Decoy720], the Type result is given as “Inactive (Decoy)”. Regarding `CCOc1ccc(NC(=O)CSC2=C(C#N)[C@H](c3ccco3)C(C(=O)Nc3ccc(OC)cc3)=C(C)N2)cc1` [Decoy721], the Type result is “Inactive (Decoy)”. With `CCOC(=O)c1c(NC(=O)CSc2nnc(CNC(=O)c3ccco3)n2C)sc2c1CCC2` [Decoy722], the Type entry is “Inactive (Decoy)”. Take `CCCCn1c(N)c(N(CCOC)C(=O)CSc2nc3ccccc3s2)c(=O)[nH]c1=O` [Decoy723]: the Type result is listed as “Inactive (Decoy)”.

Take `COc1ccccc1CNC(=O)C[C@@H]1[C@H](O)CC[C@@H]2[C@](C)(CO)[C@H](OC(=O)Nc3cc(OC)c(OC)c(OC)c3)CC[C@]21C` [Decoy724]: the Type result was “Inactive (Decoy)”. In the case of `COc1ccccc1NS(=O)(=O)c1cccc(C(=O)NNC(=O)CCn2c(C)csc2=O)c1` [Decoy725], the Type result is “Inactive (Decoy)”.

Take `CCN(CC)S(=O)(=O)c1cccc(-c2nnc(SCC(=O)Nc3cc(C)cc(C)c3)n2N)c1` [Decoy726]: the Type entry is “Inactive (Decoy)”.
